Results taken from patent publication US20230303552A1, “ARYLSULFONYL DERIVATIVES AND THEIR USE AS MUSCARINIC ACETYLCHOLINE RECEPTOR M5 INHIBITORS” (Vanderbilt University, priority 2020, published 2023).

Molecular target: T1, human M5 receptors (hM5) (Homo sapiens, UniProt P08912)
T1 construct: expressed in transfected cells
T1 sequence (P08912 1-532): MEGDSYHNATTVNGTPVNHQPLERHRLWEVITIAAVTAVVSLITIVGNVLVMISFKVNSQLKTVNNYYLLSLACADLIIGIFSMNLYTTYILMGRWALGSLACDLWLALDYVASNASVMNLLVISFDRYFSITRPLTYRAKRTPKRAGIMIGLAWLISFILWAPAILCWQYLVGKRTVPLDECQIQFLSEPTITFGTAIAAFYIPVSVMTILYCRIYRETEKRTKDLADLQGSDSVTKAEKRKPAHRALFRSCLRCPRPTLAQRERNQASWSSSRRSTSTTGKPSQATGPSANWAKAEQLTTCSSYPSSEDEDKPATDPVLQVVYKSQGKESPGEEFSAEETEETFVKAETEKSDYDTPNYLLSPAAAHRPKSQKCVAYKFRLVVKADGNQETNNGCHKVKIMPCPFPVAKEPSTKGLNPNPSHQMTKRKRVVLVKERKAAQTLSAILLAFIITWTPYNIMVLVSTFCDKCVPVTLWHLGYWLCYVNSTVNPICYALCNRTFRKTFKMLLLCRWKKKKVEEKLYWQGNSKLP
Assay: Cell-based functional calcium mobilization assay of mAChR M5 activity (inhibition of EC80 acetylcholine response) in CHO cells
Details: CHO cells stably expressing hM5; for IC50: calcium flux (Fluo-4), EC80 acetylcholine addition; for EC80 MIN: minimum of EC80 acetylcholine response, normalized to maximum acetylcholine response
How it was run: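 CHO cells stably expressing human M5, loaded with Fluo-4 AM in HBSS/20 mM HEPES/2.5 mM probenecid pH 7.4. Compound added 140 s before acetylcholine EC20, then EC80 added 125 s later. Calcium flux normalized to maximal acetylcholine response; IC50 from ten-point curves in the EC80 window.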

IC50 [nM]	EC80 MIN [%]	SMILES
1320	3	COc1ccc(S(=O)(=O)N2CCC(C(=O)Nc3ccc4scnc4c3)CC2)cn1 [Compound 10, N-(benzo[d]thiazol-5-yl)-1-((6-methoxypyridin-3-yl)sulfonyl)piperidine-4-carboxamide]
> 10000	52	O=C(Nc1ccc2scnc2c1)C1CCN(S(=O)(=O)c2ccc(C(F)(F)F)nc2)CC1 [Compound 11, N-(benzo[d]thiazol-5-yl)-1-((6-(trifluoromethyl)pyridin-3-yl)sulfonyl)piperidine-4-carboxamide]
> 10000	22	O=C(Nc1ccc2[nH]cnc2c1)C1CCN(S(=O)(=O)c2ccc3c(c2)CCO3)CC1 [Compound 13, N-(1H-benzo[d]imidazol-5-yl)-1-((2,3-dihydrobenzofuran-5-yl)sulfonyl)piperidine-4-carboxamide]
1780	2	O=C(Nc1ccc2scnc2c1)C1CN(S(=O)(=O)c2ccc3c(c2)CCO3)C1 [Compound 16, N-(benzo[d]thiazol-5-yl)-1-((2,3-dihydrobenzofuran-5-yl)sulfonyl)azetidine-3-carboxamide]
766	3	Cc1noc(C)c1S(=O)(=O)N1CCC(C(=O)Nc2ccc3scnc3c2)CC1 [Compound 17, N-(benzo[d]thiazol-5-yl)-1-((3.5-dimcthylisoxazol-4-yl)sulfonyl)piperidine-4-carboxamide]
56	2	O=C(Nc1ccc2scnc2c1)C1CCN(S(=O)(=O)c2cccnc2)CC1 [Compound 18, N-(benzo[d]thiazol-5-yl)-1-(pyridin-3-ylsulfonyl)piperidine-4-carboxamide]
3130	19	Cc1nc(C(F)(F)F)c(S(=O)(=O)N2CCC(C(=O)Nc3ccc4scnc4c3)CC2)s1 [Compound 19, N-(benzo[d]thiazol-5-yl)-1-((2-methyl-4-(trifluoromcthyl)thiazol-5-yl)sulfonyl)piperidine-4-carboxamide]
> 10000	49	Cn1cnc(S(=O)(=O)N2CCC(C(=O)Nc3ccc4scnc4c3)CC2)c1 [Compound 20, N-(benzo[d]thiazol-5-yl)-1-((1-methyl-1H-imidazol-4-yl)sulfonyl)piperidine-4-carboxamide]
434	3	O=C(Nc1ccc2scnc2c1)C1CCN(S(=O)(=O)c2cccc3nsnc23)CC1 [Compound 21, 1-(benzo[c][1,2,5]thiadiazol-4-ylsulfonyl)-N-(benzo[d]thiazol-5-yl)piperidine-4-carboxamide]
> 10000	43	CC1(C(=O)Nc2ccc3scnc3c2)CN(S(=O)(=O)c2ccc3c(c2)CCO3)C1 [Compound 22, N-(benzo[d]thiazol-5-yl)-1-((2,3-dihydrobenzofuran-5-yl)sulfonyl)-3-methylazetidine-3-carboxamide]
32	2	O=C(Nc1ccc2scnc2c1)[C@@H]1CCN(S(=O)(=O)c2ccc3c(c2)CCO3)C1 [Compound 24, (R)-N-(benzo[d]thiazol-5-yl)-1-((2,3-dihydrobenzofuran-5-yl)sulfonyl)pyrrolidine-3-carboxamide]
> 10000	42	Cn1cnc2cc(S(=O)(=O)N3CCC(C(=O)Nc4ccc5scnc5c4)CC3)ccc21 [Compound 27, N-(benzo[d]thiazol-5-yl)-1-((1-methyl-1H-benzo[d]imidazol-5-yl)sulfonyl)piperidine-4-carboxamide]
> 10000	9	Cn1nnc2cc(S(=O)(=O)N3CCC(C(=O)Nc4ccc5scnc5c4)CC3)ccc21 [Compound 28, N-(benzo[d]thiazol-5-yl)-1-((1-methyl-1H-benzo[d][1,2,3]triazol-5-yl)sulfonyl)piperidine-4-carboxamide]
> 10000	60	O=C(Nc1ccc2scnc2c1)C1CCN(S(=O)(=O)c2ccc3c(c2)OC(F)(F)O3)CC1 [Compound 29, N-(benzo[d]thiazol-5-yl)-1-((2.2-difluorobenzo[d][1,3]dioxol-5-yl)sulfonyl)piperidine-4-carboxamide]
> 10000	57	O=C(Nc1ccc2scnc2c1)C1CCN(S(=O)(=O)c2cccc(OC(F)(F)F)c2)CC1 [Compound 30, N-(benzo[d]thiazol-5-yl)-1-((3-(trifluoromethoxy)phenyl)sulfonyl)piperidine-4-carboxamide]
9160	5	Cc1cccc(S(=O)(=O)N2CCC(C(=O)Nc3ccc4scnc4c3)CC2)c1 [Compound 31, N-(benzo[d]thiazol-5-yl)-1-(m-tolylsulfonyl)piperidine-4-carboxamide]

IC50 [nM]	EC80 MIN [%]	SMILES
1930	3	O=C(Nc1ccc2scnc2c1)C1CCN(S(=O)(=O)c2ccc(F)c(F)c2)CC1 [Compound 32, N-(benzo[d]thiazol-5-yl)-1-((3,4-difluorophenyl)sulfonyl)pip eridine-4-carboxamide]
> 10000	6	Cc1ccccc1S(=O)(=O)N1CCC(C(=O)Nc2ccc3scnc3c2)CC1 [Compound 33, N-(benzo[d]thiazol-5-yl)-1-(o-tolylsulfonyl)piperidine-4-carboxamide]
> 10000	18	COc1cccc(S(=O)(=O)N2CCC(C(=O)Nc3ccc4scnc4c3)CC2)c1 [Compound 34, N-(benzo[d]thiazol-5-yl)-1-((3-methoxyphenyl)sulfonyl)pi pendine-4-carboxamide]
83	3	Cc1cc(S(=O)(=O)N2CCC(C(=O)Nc3ccc4scnc4c3)CC2)cnc1Cl [Compound 35, N-(benzo[d]thiazol-5-yl)-1-((6-chloro-5-methylpyridin-3-yl)sulfonyl)piperidine-4-carboxamide]
> 10000	40	Cn1ncc2cc(S(=O)(=O)N3CCC(C(=O)Nc4ccc5scnc5c4)CC3)cnc21 [Compound 36, N-(benzo[d]thiazol-5-yl)-1-((1-methyl-1H-pyrazolo[3,4-b]pyridin-5-yl)sulfonyl)piperidine-4-carboxamide]
> 10000	60	Cc1noc2ncc(S(=O)(=O)N3CCC(C(=O)Nc4ccc5scnc5c4)CC3)cc12 [Compound 37, N-(benzo[d]thiazol-5-yl)-1-((3-methylisoxazolo[5,4-b]pyridin-5-yl)sulfonyl)piperidine-4-carboxamide]
> 10000	27	O=C(Nc1ccc2scnc2c1)[C@@H]1CCN(S(=O)(=O)c2cccnc2)C1 [Compound 39, (R)-N-(benzo[d]thiazol-5-yl)-1-(pyridin-3-ylsulfonyl)pyrrolidine-3-carboxamide]
46	2	O=C(Nc1ccc2scnc2c1)C1CCN(S(=O)(=O)c2cc3c(cc2F)OCC3)CC1 [Compound 41, N-(benzo[d]thiazol-5-yl)-1-((6-fluoro-2,3-dihydrobenzofuran-5-yl)sulfonyl)piperidine-4-carboxamide]
39	2	O=C(Nc1ccc2scnc2c1)[C@@H]1CCN(S(=O)(=O)c2cc3c(cc2F)OCC3)C1 [Compound 42, (R)-N-(benz[d]thiazol-5-yl)-1-((6-fluoro-2,3-dihydrobenzofuran-5-yl)sulfonyl)pyrrolidine-3-carboxamide]
> 10000	37	O=C(Nc1ccc2scnc2c1)C1CCN(S(=O)(=O)c2cccc3ncccc23)CC1 [Compound 46, N-(benzo[d]thiazol-5-yl)-1-(quinolin-5-ylsulfonyl)piperidine-4-carboxamide]
> 10000	47	Cc1nc2ccc(S(=O)(=O)N3CCC(C(=O)Nc4ccc5scnc5c4)CC3)cc2s1 [Compound 47]
1790	5	O=C(Nc1ccc2scnc2c1)C1CCN(S(=O)(=O)c2ccc3c(c2)OCCO3)CC1 [Compound 48, N-(benzo[d]thiazol-5-yl)-1-((2.3-dihydrobenzo[b][1,4]dioxin-6-yl)sulfonyl)piperidine-4-carboxamide]
> 10000	8	Cc1cc2c(cc1S(=O)(=O)N1CCC(C(=O)Nc3ccc4scnc4c3)CC1)OCO2 [Compound 49, N-(benzo[d]thiazol-5-yl)-1-((6-methylbenzo[d][1,3]dioxol-5-yl)sulfonyl)pipcridinc-4-carboxamide]
1850	4	O=C(Nc1ccc2scnc2c1)C1CCN(S(=O)(=O)c2ccc3c(c2)CCCO3)CC1 [Compound 50, N-(benzo[d]thiazol-5-yl)-1-(chroman-6-ylsulfonyl)pipcridinc-4-carboxamide]
3530	38	N#Cc1cccc(S(=O)(=O)N2CCC(C(=O)Nc3ccc4scnc4c3)CC2)c1 [Compound 51, N-(benzo[d]thiazol-5-yl)-1-((3-cyanophenyl)sulfonyl)piperi dine4-carboxamide]
> 10000	24	COc1ccccc1S(=O)(=O)N1CCC(C(=O)Nc2ccc3scnc3c2)CC1 [Compound 52, N-(benzo[d]thiazol-5-yl)-1-((2-methoxyphenyl)sulfonyl)pi peridine-4-carboxamide]
